Results from the pKa sets of Baltruschat and Czodrowski (2020).

Settings: acidic group

| SMILES | pKa |
| --- | --- |
| CC(C)=CCC1C(=O)C(CC=C(C)C)(CC=C(C)C)C(O)(C(=O)[O-])C1=O (configuration not stated) | 9.7 |
| Nc1ccc(S(=O)(=O)Nc2nccc(N)n2)cc1 | 9.44 |
| CC(=O)CC(=O)CC(C)C | 9.07 |
| CCc1c(O)nn(-c2ccccc2C(=O)[O-])c1C | 12.2 |
| Cc1ccccc1NCCS | 9.6 |
| Cc1cc(C)c(C)c(O)c1 | 10.6 |
| O=C1NC(=O)c2cc([N+](=O)[O-])ccc21 | 8.68 |
| O=c1cc(CO)occ1O | 7.82 |
| COc1ccccc1CCC(=O)O | 4.8 |
| [NH3+][C@@H](Cc1c[nH]c2ccccc12)C(=O)O | 2.2 |
| Cc1ccc(C(=O)NO)cc1 | 8.9 |
| CCCC[NH+](CCS)CCCC | 7.76 |
| O=C1CC(Sc2ccc([N+](=O)[O-])cc2)N1 (configuration not stated) | 13 |
| C/C(=C\C=C\C(C)C(=O)O)[C@H]1C[NH2+][C@H](C(=O)[O-])[C@H]1CC(=O)[O-] (some centres not stated) | 4.93 |
| O=C(O)c1c2ccccc2[nH+]c2ccccc12 | 3 |
| C/C(N=O)=N\O | 5.8 |
| O=C(O)c1ccc(=O)oc1 | 3.26 |
| CC(C)C[C@H]([NH3+])C(=O)N[C@@H](Cc1c[nH]c[nH+]1)C(=O)O | 2.76 |
| [NH3+]CCS | 8.4 |
| CCOC(=O)c1n[nH]c2c(c1=O)c(=O)n(C)c(=O)n2C | 7.32 |
| O=C([O-])/C=C\C(=O)NOCc1ccccc1 | 10 |
| O=C1NC(=S)NC12CCCCC2 | 8.79 |
| CC(C)(C)N(O)C(=O)c1ccccc1 | 10.1 |
| Oc1ccc2ccc(Cl)cc2c1 | 9.09 |
| Cc1ccc(O)cc1Cc1cc([N+](=O)[O-])ccc1[O-] | 10.3 |

| SMILES | pKa |
| --- | --- |
| Cc1cc(O)ccc1/N=N/c1ccc2c(c1)Cc1ccccc1-2 | 10.3 |
| N[n+]1ccccc1O | 2.1 |
| Ic1ccc(-c2nnn[nH]2)cc1 | 3.88 |
| Nc1n[nH]c(N)c1/N=N/c1ccc(C(=O)O)cc1 | 4.68 |
| Cc1ccc2nc3ccc(O)cc3nc2c1 | 7.2 |
| Nc1ccc(O)cc1 | 10.1 |
| [NH3+]C(Cc1ccc[nH+]c1)C(=O)O (configuration not stated) | 1.69 |
| C=CC[NH2+]CCCCCCCCCCC(=O)O | 4.7 |
| NC(=O)C1CC2CCN1CC2 (configuration not stated) | 9.04 |
| CCC1C(=O)c2ccccc2C1=O | 6.5 |
| [O-]c1ccc(O)cc1Cl | 10.8 |
| Oc1ccccc1I | 8.4 |
| Oc1ccc2cnncc2c1 | 7.95 |
| COc1ccccc1-c1ccccc1O | 10.4 |
| O=S(=O)([O-])c1ccc(O)c2[nH]ncc12 | 7.6 |
| C/C(C#[N+][O-])=N\O | 8.8 |
| C[N+](C)(O)c1ccccc1 | 4.21 |
| CC(=O)c1cc([N+](=O)[O-])ccc1C(=O)O | 3.06 |
| CC(c1cccc(Cl)c1)[N+](=O)[O-] (configuration not stated) | 7.05 |
| COc1ccc(/C=N/O)cc1OC | 10.8 |
| O=C(O)CNC(=O)c1ccccc1O | 3.63 |
| C=C(C)[C@H]1C[NH2+][C@H](C(=O)O)[C@H]1CC(=O)OC | 1.95 |
| CCOC(=O)Cc1nc2ccccc2[nH]1 | 13.1 |
| CC1(C)S[C@H]2[C@@H](NC(=O)Cc3ccc(O)cc3)C(=O)N2[C@@H]1C(=O)O | 2.62 |

Same assay, conditions: basic group

| SMILES | pKa |
| --- | --- |
| N=C(N)NOCC(=O)[O-] | 7.58 |
| Cc1cnc(C)cn1 | 1.95 |
| CC(=O)Nc1ccc2nc3ccccc3cc2c1 | 4.7 |
| CC(=O)OCCc1c[nH]cn1 | 6.97 |
| C/C=C(/C)C(=O)O[C@H]1CC[C@@]2(C)[C@@H]3CC[C@H]4[C@]5(O)C[C@H](O)[C@@]6(O)[C@@H](CN7C[C@@H](C)CC[C@H]7[C@@]6(C)O)[C@]5(O)C[C@@]42O[C@]13O | 8.85 |
| CCOCCn1c(N2CCCN(CCCCn3cccn3)CC2)nc2ccccc21 | 8.5 |
| CC[C@]12CCC[NH+]3CC[C@@]4(c5cccc(OC)c5N[C@H]4CC1)[C@@H]32 | 2.7 |
| COc1cc2c(cc1OC)C(=O)Cc1ccc3c(c1CN(C)CC2)OCO3 | 8.09 |
| CCOCCNc1ccc(Cl)cc1 | 3.28 |
| CN1CCCC1c1cncc2[nH]c3ccccc3c12 (configuration not stated) | 8.02 |
| Cn1ccnc1 | 7.15 |
| NNC(=O)[C@H](Cc1c[nH]c[nH+]1)NC(=O)OCc1ccccc1 | 2.5 |
| Cc1ccc(-c2cnc(-c3ccccc3)o2)cc1 | 0.91 |
| CN(C)c1ccc(/N=N/c2ccncc2)cc1 | 5.8 |
| C1=C(c2nc3ccccc3s2)C2CCN1CC2 | 7.4 |
| C#CCN1CCOCC1 | 5.54 |
| NCCNCCc1ccccc1 | 9.44 |
| c1ccc([C@@H]2CN3CCC[C@@H]3c3ccccc32)cc1 | 9.12 |
| CN(C)C | 9.96 |
| C[n+]1c([O-])ccnc1[O-] | 9.94 |
| CC[n+]1c([O-])ccnc1[S-] | 8.65 |
| CC(=O)OCCN(C)C | 8.3 |
| N[C@@H](CCC(=O)[O-])C(=O)[O-] | 9.33 |

| SMILES | pKa |
| --- | --- |
| Cc1cnc2c(c1)cc(C)c1cc(C)cnc12 | 5.27 |
| c1ccc(N2CCCC2)cc1 | 4.3 |
| COc1c(C(=O)N[C@@H]2C[C@H]3CC[C@@H](C2)N3Cc2ccccc2)cccc1[N+](=O)[O-] | 8.61 |
| CC1CN(C)CCN1C (configuration not stated) | 8.36 |
| COc1cc(OC)c(OC)c(C(=O)N[C@H]2C[C@H]3CC[C@@H](C2)N3Cc2ccccc2)c1 | 8.84 |
| CC[C@]1(O)C[C@@H](C)N[C@@H]2CCCC[C@H]21 | 10.3 |
| CC(C)(C)n1ccnc1 | 7.35 |
| Cc1nc2[nH]c(=O)[nH]c(=O)c2[nH]1 | 3.1 |
| [O-]c1ccnc2ccccc12 | 11.2 |
| CCCn1ccnc1C=O | 5.15 |
| Cn1ccc(=NC(=O)c2ccccc2)cc1 | 9.89 |
| CC(CN(C)C)C(C#N)(c1ccccc1)c1ccccc1 (configuration not stated) | 7.9 |
| CO[C@H]1C=CC2=CCN3CCC(CO)=C(CCO)[C@]23C1 | 7.8 |
| Nc1n[nH]c(N)c1/N=N/c1ccc(C(=O)O)cc1 | 3.4 |
| CCCCCCCCCCCCCCCCN(CC(C)O)CC(C)O (configuration not stated) | 9.19 |
| Nc1ccc(O)cc1 | 5.54 |
| CC(C)NNC1CC[NH+](C)CC1 | 6.32 |
| CC(C)NCCc1ccc([O-])cc1 | 10.8 |
| CC(CC(c1ccccc1)c1ccccc1)N1CCCCC1 (configuration not stated) | 8.8 |
| CN1CCC=C(C#N)C1 | 6.35 |
| Cc1ccc(NCCS)cc1 | 5.08 |
| NCCC[n+]1ccc2c([N+](=O)[O-])cccc2c1 | 8.48 |
| Cc1cc(=O)n(C)cn1 | 2.1 |

| SMILES | pKa |
| --- | --- |
| Cc1cccc(C)c1C(=N)c1ccccc1 | 7.71 |
| CCSC(=N)c1ccccc1 | 6.05 |
| Cc1ccc([N+](=O)[O-])cc1/C(=N/CCCN(C)C)c1ccccc1 | 8.8 |
| CC(C)(C)c1ccc(N)cc1 | 4.95 |
| CCOc1ccc2[nH]cnc2c1 | 5.57 |
| Oc1ccc2cnncc2c1 | 3.94 |
| Cc1cccc2cc3ccccc3nc12 | 4.5 |
| CN(C)CCC#N | 7.01 |
| Nc1ccccc1N | 4.43 |
| Cc1cnc(N(C)C)s1 | 6.08 |
| COc1ncc2ccccc2n1 | 1.31 |
| Cc1ccc(-c2cnc(-c3ccc(Br)cc3)o2)cc1 | 0.56 |
| CSc1nc(N)c2c(ncn2[C@H]2O[C@H](CO)[C@@H](O)[C@H]2O)n1 | 3.1 |
| CCC[NH2+]CCN | 7.54 |
| c1ccc2nc3ccccc3cc2c1 | 5.48 |
| Nc1ccc2c(c1)Cc1cc(O)ccc1-2 | 4.88 |
| C[C@@H]1[C@@H](N)[C@H]1[NH3+] | 4.35 |
| CCOC(=O)Cc1nc2ccccc2[nH]1 | 5.7 |
| N#CC1=CN2CCC1CC2 | 5.84 |
| CC1=C[C@H]2CC[C@@H](O)[C@H]2N1C | 11.7 |
| CCCCCNN | 6.25 |
| CCCCNCC(=O)c1ccc(O)cc1 | 8.55 |
